These results are taken from article PMC12856317, “A reversible feedback mechanism regulating mitochondrial heme synthesis” (The Journal of Biological Chemistry, 2025).

For experiment [1], the target named is T1, holoALAS2 ΔN (residues 75–587) (Homo sapiens, UniProt P22557).
T1 construct: a truncation without HRM3 (ΔN, residues 75–587); His6-SUMO (N, cleaved yes); made in house; host or cells: Escherichia coli BL21-Codon Plus (DE3)-RIL
T1 sequence (P22557 75-587): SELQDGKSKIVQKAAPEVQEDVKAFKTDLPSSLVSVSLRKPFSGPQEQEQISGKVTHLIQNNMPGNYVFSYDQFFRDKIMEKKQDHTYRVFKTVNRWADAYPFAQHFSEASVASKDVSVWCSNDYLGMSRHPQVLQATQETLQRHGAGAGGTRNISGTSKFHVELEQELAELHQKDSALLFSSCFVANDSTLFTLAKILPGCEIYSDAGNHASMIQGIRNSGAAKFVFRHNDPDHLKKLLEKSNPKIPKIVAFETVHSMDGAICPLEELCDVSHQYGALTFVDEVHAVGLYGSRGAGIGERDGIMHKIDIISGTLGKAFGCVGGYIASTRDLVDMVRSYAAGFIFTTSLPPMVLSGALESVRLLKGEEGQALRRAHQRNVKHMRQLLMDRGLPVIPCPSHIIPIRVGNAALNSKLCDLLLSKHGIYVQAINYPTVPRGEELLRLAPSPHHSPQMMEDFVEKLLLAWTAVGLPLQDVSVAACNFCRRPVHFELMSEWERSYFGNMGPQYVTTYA
In words: Colorimetric ALA release activity assay, hemin inhibition of holoenzyme. In kind it is biochemical. The protocol: (§1) A discontinuous colorimetric activity assay adapted from Shoolingin-Jordan et al. and Bailey et al. was used to measure the enzyme activity ([48], [74]). The reaction was initiated by adding 100 nM purified enzyme to 50 mM potassium phosphate, pH 7.0, 10 mM MgCl2, 1 mM DTT, 100 mM glycine, and 300 μM succinyl-CoA (175 μl total). The reaction was incubated at 37 °C for 15 min and terminated with 100 μl of cold 10% trichloroacetic acid. The precipitated protein was removed by centrifugation for 5 min at 13,000g, and 240 μl of the supernatant was mixed with 240 μl of 1 M sodium acetate, pH 4.6. To derivatize ALA, 20 μl of acetylacetone was added to the mixture and boiled at 100 °C for 10 min. After the sample was cooled for 20 min, 100 μl aliquots were transferred into a clear 96-well plate in triplicate. An equal volume of Ehrlich’s reagent (p-Dimethylaminobenzaldehyde, DMAB) was added to each well, and the absorbance was monitored at 553 nm using a microplate reader (Thermo Fisher Scientific). The peak absorbance value was converted to molar ALA concentration using ε553 = 60,400 M^−1 cm^−1.
Inhibition of enzyme activity was determined by titrating hemin (0.1 μM–60 μM) into the substrate mixture before initiating the reaction upon enzyme addition. Hemin was dissolved in 100% dimethyl sulfoxide (DMSO) (ε403 nm = 170,000 M^−1 cm^−1) and serially diluted in 100% DMSO to prepare stock solutions for each concentration. The final DMSO concentration in the reaction mixture was 2%. All experiments were performed with a minimum of three biological replicates, each with three technical replicates. Data were fitted using nonlinear regression to generate an inhibitor dose-response curve (IC50) or an agonist dose-response curve (EC50), and statistical significance was determined using a one-way ANOVA with GraphPad Prism 10.

For experiment [2], the target named is T2, WT apoALAS2 (residues 54–587) (Homo sapiens, UniProt P22557).
T2 construct: His6-SUMO (N, cleaved yes); made in house; host or cells: Escherichia coli BL21-Codon Plus (DE3)-RIL
T2 sequence (P22557 54-587): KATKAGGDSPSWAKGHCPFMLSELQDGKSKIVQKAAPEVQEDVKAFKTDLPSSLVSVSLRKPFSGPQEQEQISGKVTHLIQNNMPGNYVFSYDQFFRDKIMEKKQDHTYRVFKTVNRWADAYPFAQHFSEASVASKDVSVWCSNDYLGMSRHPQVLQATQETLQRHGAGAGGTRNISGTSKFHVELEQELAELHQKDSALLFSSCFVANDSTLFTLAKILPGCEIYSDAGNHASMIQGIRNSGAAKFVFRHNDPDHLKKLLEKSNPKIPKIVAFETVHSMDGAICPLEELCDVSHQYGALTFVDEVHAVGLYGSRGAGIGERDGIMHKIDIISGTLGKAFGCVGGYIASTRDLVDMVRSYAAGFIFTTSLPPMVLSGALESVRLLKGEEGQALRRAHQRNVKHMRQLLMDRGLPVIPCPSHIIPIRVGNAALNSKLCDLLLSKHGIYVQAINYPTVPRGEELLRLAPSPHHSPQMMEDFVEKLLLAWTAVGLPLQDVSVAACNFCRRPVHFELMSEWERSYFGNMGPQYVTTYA
In words: Inhibitor competition, apoenzyme reactivation by PLP with or without hemin. To be noted: for Vmax / Km: PLP varied; for Km: 95% confidence interval in brackets. In kind it is biochemical. The protocol:
as §1
For inhibitor competition experiments, the apoenzymes were preincubated with hemin or PLP (0–100 μM) for 15 min at 25 °C in the dark before initiating the reaction. Next, either PLP or hemin (0–100 μM) was titrated into the reactions to measure enzyme activation after hemin inhibition or enzyme inhibition of the PLP-treated apoenzyme, respectively. For succinyl-CoA:hemin competition analyses, the WT holoenzyme was mixed with hemin (0, 25, 50, and 100 μM), followed by the addition of increasing succinyl-CoA concentrations (0, 25, 50, 100, 250, and 500 μM). All experiments were performed with a minimum of three biological replicates, each with three technical replicates. Data were fit using nonlinear regression to generate an agonist dose-response curve (EC50) or an inhibitor dose-response curve (IC50). Lineweaver-Burk analysis was performed using the resulting kinetic parameters (Vmax and KM) in GraphPad Prism 10.

A word on the IC50: it is the concentration that inhibits the measured activity by half. Read a low IC50 as greater potency in that assay. In general, Km refers to the concentration of substrate that gives half-maximal velocity. One may read the EC50 as the concentration needed to bring the measured effect to its halfway point.

In the case of ferric chloride heme [hemin], in experiment [1] (ΔN versus WT), the “IC50 fold higher than WT” value is listed as roughly 2 fold. In experiment [1] (ΔN, 0.1 μM–60 μM hemin titrated into holoenzyme), this compound registered an IC50 of 35.8 ± 0.4 µM. In addition, the mode of inhibition result in experiment [2] (WT apoenzyme, varied PLP, various heme concentrations up to 100-fold excess) is “mixed inhibitor”.

Regarding `Cc1ncc(COP(=O)(O)O)c(C=O)c1O` [PLP], the Vmax was 110.84 [123.30, 100.65] nmol/min/mg in experiment [2] (hemin 0 μM); 91.16 [97.56, 85.54] nmol/min/mg in experiment [2] (hemin 10 μM); 58.17 [67.25, 51.28] nmol/min/mg in experiment [2] (hemin 25 μM); 45.96 [99.50, 29.88] nmol/min/mg in experiment [2] (hemin 50 μM); 27.29 [41.39, 20.36] nmol/min/mg in experiment [2] (hemin 100 μM). Moreover, the Km in experiment [2] (hemin 0 μM) was determined as 0.86 µM; in experiment [2] (hemin 10 μM), 3.36 µM; in experiment [2] (hemin 25 μM), 4.78 µM; in experiment [2] (hemin 50 μM), 11.9 µM; in experiment [2] (hemin 100 μM), 9.82 µM. Moreover, in experiment [2] (WT apoALAS2, PLP titration in the absence of heme), the “activation constant (Ka)” value worked out at 0.72 ± 0.08 µM. The EC50 in experiment [2] (WT apoALAS2, PLP titration in the presence of 50 μM hemin) came to 7 ± 1 µM. This compound also came in with an apoenzyme activity restored in experiment [2] (WT apoenzyme preincubated with 50 μM heme, excess PLP) of roughly 50%.
